From US20080194653A1, “Therapeutic Agent For Solid Tumor” (KYOWA HAKKO KOGYO CO., LTD., priority 2005, published 2008)

Assays:
[1] = tested on: human breast cancer MDA-MB-468 cells; assay: Cell growth inhibition test against breast cancer cells (XTT); type: cell-based; conditions: read-out: GI50 value (concentration of 50% growth inhibition)
Experimental: (§1) A549 cells (1000 cells/well), SK-OV-3 cells (2000 cells/well), or HCT 116 cells (1000 cells/well) were seeded in each well of 96-well plates (Nunc, catalog No. 167008), and cultured overnight. Test compounds diluted stepwise were added, and the cells were further cultured for 72 hours (final volume: 100 μL/well). Fifty μL XTT labeling mixture of Cell Proliferation Kit II (XTT) (Roche Diagnostics, catalog No. 1465015) was added to each well, and the plates were incubated at 37° C. After 1 to 3 hours, absorbance at 490 nm (reference wavelength: 655 nm) was measured with a plate reader (Molecular Device, SpectraMax 340PC^384). Growth ratios of the cells in the wells treated with the test compounds were calculated based on the growth ratio of the cells in the control well treated with solvent (dimethyl sulfoxide (DMSO)) for 72 hours, which was defined as 100%.
(§2) As cancer cell lines, human pancreatic cancer MIA PaCa-2 cells (JCRB No. 0070), human cervical cancer HeLa cells (ATCC No. CCL-2), human breast cancer MDA-MB-468 cells (ATCC No. HTB-132), human prostate cancer DU 145 cells (ATCC No. HTB-81), human skin cancer SK-MEL-28 cells (ATCC No. HTB-72), human head and neck cancer KB cells (JCRB No. 9027), human renal cancer 786-0 cells (ATCC No. CRL-1932), and human liver cancer Hep G2 cells (ATCC No. HB-8065) were used. The cells were cultured at 37° C. in a 5% carbon dioxide atmosphere (except for the human breast cancer MDA-MB-468 cells, which were cultured under the condition at 37° C.) by using the mediums mentioned below, respectively.
(§3) In the same manner as that in Test Example 1, the cells were seeded (500 to 4000 cells/well, respectively) in each well of 96-well plates (Nunc, catalog No. 167008), and growth ratios of the cells treated with test compounds were calculated. The measurement of absorbance was performed at 1.5 to 3 hours after the addition of the XTT labeling mixture.

[2] = tested on: human lung cancer A549 cells; assay: Cell growth inhibition test against lung cancer cells (XTT); type: cell-based; conditions: read-out: GI50 value (concentration of 50% growth inhibition), 72 hours
Experimental: (§4) As cancer cell lines, human lung cancer A549 cells (ATCC No. CCL-185), human ovarian cancer SK-OV-3 cells (ATCC No. HTB-77), and human colon cancer HCT 116 cells (ATCC No. CCL-247) were used. For the culture of A549 cells, Nutrient Mixture F-12K medium (Invitrogen, catalog No. 21127-022) containing 10% fetal bovine serum (Invitrogen, catalog No. 10099-141), 100 units/mL penicillin (Invitrogen, catalog No. 15140-122), and 100 μg/mL streptomycin (Invitrogen, catalog No. 15140-122) was used. For the culture of SK-OV-3 cells and HCT 116 cells, McCoy's 5A medium (Invitrogen, catalog No. 16600-082) containing 10% fetal bovine serum (Invitrogen, catalog No. 10099-141), 100 units/mL penicillin (Invitrogen, catalog No. 15140-122), and 100 μg/mL streptomycin (Invitrogen, catalog No. 15140-122) was used. The cells were cultured at 37° C. in a 5% carbon dioxide atmosphere.
as §1

[3] = tested on: human skin cancer SK-MEL-28 cells; assay: Cell growth inhibition test against skin cancer cells (XTT); type: cell-based; conditions: read-out: GI50 value (concentration of 50% growth inhibition)
Experimental: as §1, §2, §3

[4] = tested on: human head and neck cancer KB cells; assay: Cell growth inhibition test against head and neck cancer cells (XTT); type: cell-based; conditions: read-out: GI50 value (concentration of 50% growth inhibition)
Experimental: as §1, §2, §3

[5] = tested on: human liver cancer Hep G2 cells; assay: Cell growth inhibition test against liver cancer cells (XTT); type: cell-based; conditions: HepG2, read-out: GI50 value (concentration of 50% growth inhibition)
Experimental: as §1, §2, §3

[6] = tested on: human colon cancer HCT 116 cells; assay: Cell growth inhibition test against colon cancer cells (XTT); type: cell-based; conditions: read-out: GI50 value (concentration of 50% growth inhibition), 72 hours
Experimental: as §4, §1

[7] = tested on: human cervical cancer HeLa cells; assay: Cell growth inhibition test against cervical cancer cells (XTT); type: cell-based; conditions: read-out: GI50 value (concentration of 50% growth inhibition)
Experimental: as §1, §2, §3

[8] = tested on: human renal cancer 786-0 cells; assay: Cell growth inhibition test against renal cancer cells (XTT); type: cell-based; conditions: read-out: GI50 value (concentration of 50% growth inhibition)
Experimental: as §1, §2, §3

[9] = tested on: human prostate cancer DU 145 cells; assay: Cell growth inhibition test against prostate cancer cells (XTT); type: cell-based; conditions: read-out: GI50 value (concentration of 50% growth inhibition)
Experimental: as §1, §2, §3

[10] = tested on: human pancreatic cancer MIA PaCa-2 cells; assay: Cell growth inhibition test against pancreatic cancer cells (XTT); type: cell-based; conditions: read-out: GI50 value (concentration of 50% growth inhibition)
Experimental: as §1, §2, §3

[11] = tested on: human ovarian cancer SK-OV-3 cells; assay: Cell growth inhibition test against ovarian cancer cells (XTT); type: cell-based; conditions: read-out: GI50 value (concentration of 50% growth inhibition), 72 hours
Experimental: as §4, §1

[12] = target: T1, recombinant human Eg5 motor domain protein (Homo sapiens, UniProt P52732); assay: Eg5 enzyme inhibition test (ATPase activity); type: biochemical; conditions: for IC50: 30° C., 30 minutes, absorbance at 360 nm, read-out: Inhibition ratios (IC50) on the ATPase activity of Eg5
T1 construct: A plasmid expressing the motor domain of human Eg5 was constructed; made in house; host or cells: Escherichia coli BL21 (DE3)
T1 sequence (P52732 18-359 limits assumed): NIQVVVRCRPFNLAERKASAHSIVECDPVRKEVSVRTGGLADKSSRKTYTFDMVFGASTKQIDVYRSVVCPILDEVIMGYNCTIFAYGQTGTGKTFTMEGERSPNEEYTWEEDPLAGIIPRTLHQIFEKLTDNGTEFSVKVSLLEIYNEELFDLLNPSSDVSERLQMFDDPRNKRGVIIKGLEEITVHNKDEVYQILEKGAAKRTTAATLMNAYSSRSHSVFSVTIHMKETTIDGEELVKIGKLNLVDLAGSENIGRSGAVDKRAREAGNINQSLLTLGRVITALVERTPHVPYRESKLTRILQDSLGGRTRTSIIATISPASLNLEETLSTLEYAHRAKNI
Experimental: A recombinant human Eg5 motor domain protein was prepared by referring to the literature [Biochemistry, Vol. 35, p. […] A plasmid expressing the motor domain of human Eg5 was constructed, and transformed into Escherichia coli BL21 (DE3). The transformant was cultured at 25° C., and when the OD600 reached 0.74, isopropyl-β-D-thiogalactoside was added at a final concentration of 0.5 mmol/L. The transformant was further cultured for 4 hours, and then the culture medium was centrifuged to collect the cells. The cells were suspended in a buffer and ultrasonicated, and then the sonicated solution was centrifuged to recover the supernatant. The supernatant was purified by cation exchange column chromatography to obtain a partially purified sample. Furthermore, the partially purified sample was purified by gel filtration column chromatography to obtain a finally purified sample.
Measurement of the ATPase activity of Eg5 was carried out by referring to the literatures [EMBO Journal, Vol. 13, p. […] Solution A was dispensed into each well of a 96-well plate as 45 μL portions. Solution B was used to serially dilute a test compound. The diluted test compound solutions in a volume of 30 μL were mixed with Solution A added beforehand in each well of the 96-well plate to start the enzymatic reaction. The enzymatic reaction was performed at 30° C. for 30 minutes. […] The relative activity was calculated to calculate IC50 value.

melting point | GI50 [1] | GI50 [2] | GI50 [3] | GI50 [4] | GI50 [5] | GI50 [6] | GI50 [7] | GI50 [8] | GI50 [9] | GI50 [10] | GI50 [11] | IC50 [12] | SMILES | Inhibition of the ATPase activity of Eg5 (in words) [12]
101 to 104 °C | < 10 µM | < 10 µM | < 10 µM | < 10 µM | < 10 µM | < 0.1 µM | < 10 µM | < 10 µM | < 10 µM | < 10 µM | < 10 µM |  | CN(C)CCS(=O)(=O)NCC1(c2ccccc2)SC(NC(=O)C(C)(C)C)=NN1C(=O)C(C)(C)C (single isomer, unassigned; (-)) [Compound m, (−)-N-[5-(2-Dimethylaminoethanesulfonylaminomethyl)-4-(2,2-dimethyl-propionyl)-5-phenyl-4,5-dihydro-1,3,4-thiadiazol-2-yl]-2,2-dimethylpropanamide] | 
204 to 206 °C | < 10 µM | < 10 µM | < 10 µM | < 10 µM | < 10 µM | < 0.1 µM | < 10 µM | < 10 µM | < 10 µM | < 10 µM | < 10 µM | < 0.1 µM | CC(C)(C)C(=O)NC1=NN(C(=O)C(C)(C)C)C(CCNS(C)(=O)=O)(c2ccccc2)S1 (single isomer, unassigned; (-)) [Compound a, (−)-N-[4-(2,2-Dimethylpropionyl)-5-(2-methanesulfonylaminoethyl)-5-phenyl-4,5-dihydro-1,3,4-thiadiazol-2-yl]-2,2-dimethylpropanamide] | inhibited the ATPase activity of Eg5 in a concentration-dependent manner
92 to 95 °C | < 10 µM | < 10 µM | < 10 µM | < 10 µM | < 10 µM | < 0.1 µM | < 10 µM | < 10 µM | < 10 µM | < 10 µM | < 10 µM |  | CN(C)CCCS(=O)(=O)NCC1(c2ccccc2)SC(NC(=O)C(C)(C)C)=NN1C(=O)C(C)(C)C (single isomer, unassigned; (-)) [Compound n, (−)-N-[5-(3-Dimethylaminopropanesulfonylaminomethyl)-4-(2,2-dimethylpropionyl)-5-phenyl-4,5-dihydro-1,3,4-thiadiazol-2-yl]-2,2-dimethyl-propanamide] | 
 | < 10 µM | < 10 µM | < 10 µM | < 10 µM | < 10 µM | < 0.1 µM | < 10 µM | < 10 µM | < 10 µM | < 10 µM | < 10 µM | < 0.1 µM | CC(C)(C)C(=O)NC1=NN(C(=O)C(C)(C)C)C(CCCC(=O)NCCO)(c2ccccc2)S1 (single isomer, unassigned) [Compound o, 4-[3-(2,2-Dimethylpropionyl)-5-(2,2-dimethylpropionylamino)-2-phenyl-2,3-dihydro-1,3,4-thiadiazol-2-yl]-N-(2-hydroxyethyl)butanamide] | inhibited the ATPase activity of Eg5 in a concentration-dependent manner
 | < 10 µM | < 10 µM | < 10 µM | < 10 µM | < 10 µM | < 0.1 µM | < 10 µM | < 10 µM | < 10 µM | < 10 µM | < 10 µM | < 0.1 µM | CC(C)C(=O)N1N=C(NC(=O)C(C)(C)C)SC1(CCNS(C)(=O)=O)c1ccccc1 (single isomer, unassigned; (-)) [Compound d, (−)-N-[4-Isobutyryl-5-(2-methanesulfonylaminoethyl)-5-phenyl-4,5-dihydro-1,3,4-thiadiazol-2-yl]-2,2-dimethylpropanamide] | inhibited the ATPase activity of Eg5 in a concentration-dependent manner
188 to 191 °C | < 10 µM | < 10 µM | < 10 µM | < 10 µM | < 10 µM | < 0.1 µM | < 10 µM | < 10 µM | < 10 µM | < 10 µM | < 10 µM | < 0.1 µM | CCC(=O)N1N=C(N2CCCC2=O)SC1(CCNS(C)(=O)=O)c1ccccc1 (single isomer, unassigned; (-)) [Compound e, (−)-N-{2-[5-(2-Oxopyrrolidin-1-yl)-2-phenyl-3-propionyl-2,3-dihydro-1,3,4-thiadiazol-2-yl]ethyl}methanesulfonamide] | inhibited the ATPase activity of Eg5 in a concentration-dependent manner
